Test systems include OVCAR-3 ovarian; MOLT-4 leukemia; U251 CNS; OVCAR-8 ovarian; HCC-2998 colon; OVCAR-4 ovarian; NCI-H522 lung; UO-31 renal; CAKI-1 renal.
Assay in all cases: inhibition of tumour cell growth, NCI panel, 48 h

Where “and” joins values, the source holds several entries; their conditions need not be identical. Identical values can stand only once.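 In this assay, cells in 96-well plates receive the compound at five concentrations for 48 hours. Endpoints are linearly interpolated between the surrounding concentrations. GI50 marks 50% less growth. The concentration for full growth arrest is given as TGI.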

`CSc1cnc2ccccc2c1Sc1c[nH]c2ccccc2c1=O`: the TGI in the experiment on OVCAR-3 ovarian was 22 µM; in the experiment on MOLT-4 leukemia it was > 44.7 µM; in the experiment with U251 CNS it was 23.8 µM; in the experiment on OVCAR-8 ovarian, 34.4 µM; in the experiment on HCC-2998 colon, 29.5 µM; in the experiment with OVCAR-4 ovarian, 33 µM. The TGI is 11 µM with NCI-H522 lung and 45.1 µM in the experiment on UO-31 renal.

Consider `CCCCCC(O)C(O)CCC[C@H](O)[C@H]1CC[C@H]([C@H]2CC[C@H]([C@H](O)CCCCCCCCCCCCC3=C[C@H](C)OC3=O)O2)O1` (some centres undefined), for which the GI50 in the experiment on OVCAR-3 ovarian was 12.3 µM; in the experiment on U251 CNS, 8.47 µM; in the experiment on OVCAR-8 ovarian, 7.24 µM; with CAKI-1 renal, 15.3 µM; in the experiment on UO-31 renal, 4.46 µM. In addition, the TGI is 8.38 µM and 31.6 µM in the experiment with OVCAR-3 ovarian; > 100 µM in the experiment with U251 CNS; > 100 µM in the experiment on OVCAR-8 ovarian; 36.5 µM in the experiment on CAKI-1 renal; 41.3 µM with HCC-2998 colon; 24.1 µM with OVCAR-4 ovarian. Also, the TGI in the experiment on NCI-H522 lung was 23.9 µM; in the experiment with UO-31 renal it was 5.67 µM and 20.5 µM.

`CC1=C(C(=O)Nc2ccccc2)C(c2ccccc2Cl)C(C(=O)Nc2ccccc2)=C(C)N1`: the TGI in the experiment with OVCAR-3 ovarian stood at 40.5 µM; in the experiment on MOLT-4 leukemia, 60.1 µM; in the experiment with U251 CNS, 35.8 µM; in the experiment on OVCAR-8 ovarian it was 91.8 µM; in the experiment on CAKI-1 renal, 57.2 µM; with HCC-2998 colon, 43.5 µM. Besides, the TGI in the experiment on OVCAR-4 ovarian is > 100 µM; with NCI-H522 lung it was 35.4 µM; in the experiment on UO-31 renal, 84.4 µM.

As for `O=C(O)CCNS(=O)(=O)c1ccc2ccccc2c1`, the TGI in the experiment on OVCAR-3 ovarian, with MOLT-4 leukemia, in the experiment on U251 CNS, with OVCAR-8 ovarian, in the experiment on CAKI-1 renal and in the experiment on HCC-2998 colon was > 100 µM each time. In addition, the TGI in the experiment on OVCAR-4 ovarian, with NCI-H522 lung and in the experiment with UO-31 renal was > 100 µM throughout.

On to `CC1=C(SC#N)S(=O)(=O)N(c2ccccc2)C(C)=C1SC#N`, for which the TGI in the experiment with MOLT-4 leukemia is 57.8 µM; in the experiment with U251 CNS, 35.4 µM; in the experiment with OVCAR-8 ovarian, > 100 µM; in the experiment with CAKI-1 renal, > 100 µM; in the experiment with HCC-2998 colon, > 100 µM; with OVCAR-4 ovarian, > 100 µM. Moreover, the TGI in the experiment on NCI-H522 lung and in the experiment on UO-31 renal was > 100 µM throughout.

Take `COc1ccc(C2=Nc3ccccc3SC(C)C2)cc1OC` (centres undefined): the TGI in the experiment on OVCAR-3 ovarian came to 30.8 µM; with MOLT-4 leukemia it was 34.8 µM; with U251 CNS, 30.9 µM; in the experiment on OVCAR-8 ovarian it was 43.8 µM; in the experiment on CAKI-1 renal it was 50.4 µM; in the experiment with HCC-2998 colon, 32.6 µM. For the same compound, the TGI with OVCAR-4 ovarian stood at 57.4 µM; with NCI-H522 lung it was 32.1 µM; in the experiment with UO-31 renal, 32.4 µM.

For `CCOC(=O)C1=C(O)c2ccc(C)cc2C(=O)C1=O`, the TGI in the experiment on OVCAR-3 ovarian, in the experiment with MOLT-4 leukemia, in the experiment on U251 CNS, with OVCAR-8 ovarian, in the experiment on CAKI-1 renal and in the experiment on HCC-2998 colon was > 100 µM each time. In addition, the TGI with OVCAR-4 ovarian, with NCI-H522 lung and in the experiment with UO-31 renal was > 100 µM in each case.

As to `O=C(C(=O)n1ncc(Cl)c(Cl)c1=O)n1ncc(Cl)c(Cl)c1=O`, the TGI is 68.2 µM with OVCAR-3 ovarian; 43.7 µM with MOLT-4 leukemia; > 100 µM in the experiment with U251 CNS; > 59.9 µM in the experiment on OVCAR-8 ovarian; 44 µM with CAKI-1 renal; 46.9 µM in the experiment with HCC-2998 colon. Besides, the TGI with OVCAR-4 ovarian was 36.1 µM; in the experiment with NCI-H522 lung, 28.1 µM; with UO-31 renal, > 100 µM.

Turning to `CCOC(=O)/C(=C/c1cccc(Cl)c1)N(CC)CC`, the TGI in the experiment on MOLT-4 leukemia, in the experiment with U251 CNS, in the experiment on OVCAR-8 ovarian, in the experiment on CAKI-1 renal, with HCC-2998 colon and in the experiment with OVCAR-4 ovarian was > 100 µM in each case. In addition, the TGI is 96.2 µM in the experiment with NCI-H522 lung and > 100 µM in the experiment with UO-31 renal.

As to `[N-]=[N+]=NCC(O)Cn1cnc2c(NC(=O)c3ccccc3)ncnc21` (centres undefined), the TGI in the experiment with MOLT-4 leukemia, in the experiment with U251 CNS, in the experiment on OVCAR-8 ovarian, with CAKI-1 renal, with HCC-2998 colon and in the experiment with OVCAR-4 ovarian was > 100 µM throughout. The TGI in the experiment on NCI-H522 lung and in the experiment on UO-31 renal was > 100 µM each time.

`Cc1ccc(N=C[N-]c2ccc(C)cc2)cc1.Cc1ccc(N=C[N-]c2ccc(C)cc2)cc1.O=C([O-])C(F)(F)F.O=C([O-])C(F)(F)F.[OH3+].[OH3+].[Rh+2].[Rh+2]`: the GI50 in the experiment on OVCAR-3 ovarian was 62 µM; in the experiment on MOLT-4 leukemia, 19 µM; with U251 CNS, 25.8 µM; with OVCAR-8 ovarian, 35.1 µM; with CAKI-1 renal, > 100 µM; with HCC-2998 colon, 36.5 µM. Further, the GI50 was 44.6 µM in the experiment with OVCAR-4 ovarian, 23.4 µM with NCI-H522 lung and > 100 µM in the experiment with UO-31 renal. The TGI with OVCAR-3 ovarian was > 100 µM; with MOLT-4 leukemia, 42.7 µM; with U251 CNS, 72.3 µM; with OVCAR-8 ovarian it was > 100 µM; in the experiment on CAKI-1 renal it was > 100 µM; with HCC-2998 colon, > 100 µM. Further, the TGI in the experiment with OVCAR-4 ovarian was > 100 µM; in the experiment on NCI-H522 lung it was 53.2 µM; in the experiment on UO-31 renal it was > 100 µM.

As to `CCC(C)CC(C)CC(C)/C=C(\C)C1=C(C)CC(C)(O)O1` (centres undefined), the TGI with MOLT-4 leukemia, in the experiment with U251 CNS, with OVCAR-8 ovarian, with CAKI-1 renal, in the experiment with HCC-2998 colon and in the experiment with NCI-H522 lung was > 100 µM throughout. In addition, the TGI in the experiment on UO-31 renal is > 100 µM.

Turning to `C1CCCCc2nc3c(nc2CCC1)c1nc2c(nc1c1nc4c(nc31)CCCCCCCC4)CCCCCCCC2`, the TGI in the experiment on MOLT-4 leukemia, in the experiment with U251 CNS, with OVCAR-8 ovarian, in the experiment on HCC-2998 colon and with UO-31 renal was > 100 µM each time.

`COC1=CC(C2c3cc4c(cc3[C@@H](Nc3ccc(F)cc3)C3COC(=O)[C@H]23)OCO4)=CC(=O)C1=O` (some centres undefined): the TGI is > 66.5 µM in the experiment with OVCAR-3 ovarian; 14.5 µM with MOLT-4 leukemia; 13.7 µM in the experiment with U251 CNS; > 51.4 µM in the experiment with OVCAR-8 ovarian; 31.9 µM with CAKI-1 renal; 39.6 µM with HCC-2998 colon. Further, the figures for the TGI in the experiment on OVCAR-4 ovarian, in the experiment with NCI-H522 lung and in the experiment on UO-31 renal were > 61.2 µM, 14.9 µM and 30.2 µM, respectively.

The values above are taken from PubChem BioAssay (NCI).
